The test system of experiment [1] is Human melanoma cells M21. The experiment can be described thus: M21 melanoma cell adhesion to denatured collagen type-IV (Example 2). The following applies: M21 cells on denatured collagen type-IV; peptide 250 μg/ml. The format is cell-based. The source says:
FIG. 1 is a chart which illustrates M21 human melanoma cell adhesion to untreated denatured type-IV collagen (NT), CLK-peptide treated denatured collagen type-IV, SLK-peptide treated denatured collagen type-IV, and SDR-peptide treated denatured collagen type-IV.
SLK peptides bind to functional epitopes within denatured collagen type-IV that regulate cellular adhesion. Non-tissue culture treated 48-well plates were coated with denatured collagen type-IV. Human melanoma cells M21 (Scripps Research Institute, La Jolla, Calif.) were allowed to attach to the coated wells in the presence or absence of the synthetic peptides CLK, SLK, and SDR, each peptide was at a concentration of 250 μg/ml. SDR peptide is a commercially available peptide that was used as a control (QED Bioscience, Inc., San Diego, Calif.).
Human denatured collagen type-IV (25 μg/ml) was immobilized on 48-well nontissue culture treated plates. Wells were washed and incubated with 1% BSA (bovine serum albumin) in PBS (phosphate-buffered saline) for one hour at 37° C. Subconfluent […] were harvested, washed, and resuspended in adhesion buffer containing RPMI-1640 medium, 1 mM MgCl2, 0.2 mM MnCl2, and 0.5% BSA. […] Cell adhesion was quantified by measuring the optical density of eluted crystal violet at a wavelength of 600 nm.

Experiment [2] concerns Human endothelial cells (HUVECs). Nature of the experiment: Endothelial cord formation in MATRIGEL
The class given is cell-based. The following applies: 0 to 100 μg/ml, 24 hours. On the procedure: FIG. 6 Effects of CLK Peptide on HUVEC Cord Formation in MATRIGEL®. MATRIGEL was added to 96-well plates and allowed to form three-dimensional gels. […] Representative photos were taken at a magnification of 100×. A. Untreated control. B. CLK 25 μg/ml. C. CLK 50 μg/ml. D. CLK 100 μg/ml. E. Control Peptide 100 μg/ml.
The role that the CLK cryptic collagen epitope plays in regulating endothelial cell morphogenesis and cord formation, processes important in angiogenesis, were investigated. MATRIGEL was diluted in M199 medium and 300 μl were added to the wells of a 48-well culture plate and allowed to polymerize. […] Endothelial morphogenesis and cord formation was monitored with an inverted microscope fitted with a 35 mm camera to document cord formation.

In experiment [3] the test system is Glioblastoma (GL261) cells. The experiment can be described thus: GL261 glioblastoma cell adhesion to collagen type-IV. The class given is cell-based, murine. The following applies: 50 μg/ml. On the procedure:
FIG. 21 Effects of CLK-Peptide on Glioblastoma Cell Adhesion to Denatured Collagen Type-IV.
To assess the functional significance of the HUI77/CLK cryptic epitope, cell adhesion assays using a glioblastoma cell line were performed. Microtiter plates were coated with denatured collagen type-IV (10 μg/ml). Glioblastoma (GL261) cells were resuspended in adhesion buffer in the presence or absence of CLK-peptide or a non-specific control (CTW) peptide (50 μg/ml) and the […] were incubated in the coated wells for 30 minutes. Non-attached cells were removed by washing, and attached cells quantified by staining with crystal violet.

Experiment [4] concerns Human melanoma cells (M21). The experiment can be described thus: M21 cell adhesion to denatured or native collagen type-IV or fibronectin (Example 9). The format is cell-based. The following applies: 0-100 μg/ml. On the procedure:
Non-tissue culture treated 48-well plates were coated with denatured collagen type-IV at 10 μg/ml. […] Cell adhesion was quantified by measuring the O.D. of eluted dye at 600 nm. Data bars represent the mean O.D.±standard deviation from triplicate wells. Assays were completed 2 to 3 times with similar results.
Non-tissue culture treated 48-well plates were coated with native collagen type-IV or fibronectin at 10 μg/ml. Human melanoma cells (M21) were allowed to attach to the coated wells in the presence or absence of CLK-Peptide or control peptide CTW at 0-100 μg/ml. Cell adhesion was quantified by measuring the O.D. of eluted dye at 600 nm. Data bars represent the mean O.D.±standard deviation from triplicate wells. Assays were completed 2 to 3 times with similar results. A. Adhesion to native collagen type-IV. B. Adhesion to Fibronectin.
Adhesion assays were performed to study the effects of CLK-peptide on tumor cell adhesion in vitro. Microtiter wells were coated with either native collagen type-IV or the control ECM protein fibronectin. Malignant melanoma cells (M21) were allowed to bind to the coated substrates in the presence or absence of CLK peptide or a control peptide, CTW.

The test system of experiment [5] is denatured collagen type-IV. Nature of the experiment: 99Tc-CLK-Peptide competitive binding to denatured collagen type-IV (gamma counter). The following applies: 99Tc-CLK-peptide 10 μg/ml, 50 μl/well; collagen 10 μg/ml. On the procedure:
FIG. 18 Inhibition of 99Tc-CLK-Peptide binding by unlabeled HUI77.
FIG. 19 Inhibition of Binding of Labeled CLK-Peptide to Denatured Collagen Type-IV by mAb HUI77. Denatured collagen type-IV (10 μg/ml) was coated on microtiter wells and binding of 99Tc-labeled CLK-Peptide in the presence or absence of unlabeled CLK-peptide or mAb HUI77 was measured. As shown in the figure, 99Tc-CLK-peptide (10 μg/ml, 50 μl/well) specifically binds to denatured collagen type-IV (first bar from left). […] 99Tc-CLK-peptide was also allowed to bind to denatured collagen type-IV in the presence or absence of Mab HUI77 (fourth and fifth bars from left). […] These findings provide further evidence that the CLK-peptide binds to a similar if not identical epitope recognized by Mab HUI77.
^99Tc-CLK-Peptide was used in competitive binding studies to further characterize the CLK epitope. To evaluate the ability of HUI77 to compete with binding to denatured type-IV collagen, type-IV collagen was denatured at 60° C. for 15 minutes at a concentration of […] in PBS. […] The supernatant, washes and collagen-coated wells were counted in a gamma counter (1 minute counts in duplicate).
In addition, denatured collagen type-IV (10 μg/ml) was coated on microtiter wells and binding of ^99Tc-labeled CLK-Peptide in the presence or absence of either unlabeled CLK-peptide or mAb HUI77 was measured using a gamma counter. […]

The record followed here is US8133471B2, “CLK-peptide and SLK-peptide” (New York University, priority 2003, dated 2012).

No end group written: not given here.

On to “NH2-S-L-K-Q-N-G-G-N-F-S-L-C-COOH (H-SLKQNGGNFSLC-OH) [SLK-peptide]”, for which the “blockade of melanoma cell adhesion” value in experiment [1] was “about 50%”.

On to “CTWPRHHTTDALL (control peptide) [reference compound]”, for which, in experiment [2], the “effect on endothelial cord formation” value was “little if any effect”. Further, the “effect on glioblastoma cell adhesion to denatured collagen type-IV” value in experiment [3] is on record as “no effect”. For the same substance, in experiment [4], the “effect on M21 cell adhesion to fibronectin” value is listed as “Neither CLK-Peptide nor the control peptide had any effect”, the “effect on M21 cell adhesion to native triple helical collagen type-IV” value is “Neither CLK-Peptide nor the control peptide had any effect” and the “effect on M21 cell attachment to denatured collagen type-IV” value was “no effect”.

Regarding “99Tc-CLK-peptide: 99Tc-labeled CLK-Peptide used in competitive binding studies (CLKQNGGNFSLG; also: 99Tc-labeled, site not given here)”, in experiment [5], the “binding to denatured collagen type-IV” value is on record as “specifically bound”.
